According to patent US20250177473A1, “PEPTIDE REGULATORS OF METABOLISM” (Metabico, Inc., priority 2022, published 2025):

Experiments:
[1] = test system: pStat3 (Y705) in the hypothalamus; assay: pStat3 (Y705) immunohistochemistry of mouse hypothalamus after administration; assay type: in vivo, C57Bl/6J mice; conditions: 60 minutes after administration; EPSI 10 mg/kg intranasally; leptin 5 mg/mL intraperitoneally; 24 h food deprivation
Method: Fifteen C57Bl/6J 15 weeks old mice (5 animals per group) were used in the study.
We performed food deprivation 24 hours prior to the administration of the compounds. The animals of the experimental group were administered with 10 mg/kg EPSI intranasally (EPSI was dissolved in 10 μL of saline per mouse, 5 μL in each nostril). Positive control animals were administered with 5 mg/mL leptin intraperitoneally (leptin was dissolved in 100 μL of saline per mouse). Negative control mice were administered with 100 μL of saline intraperitoneally. The mice were euthanized 60 minutes after the administration of the compounds.
Narcosis was performed using the combination of Zoletil (20 mg/kg) and Rometar (5 mg/kg). Next, transcardial perfusion was performed with saline to wash out the blood, then with a 10% formalin solution. After complete fixation, the animal bodies were decapitated, the brain was extracted and additionally fixed in 10% formalin, after which it was washed in PBS 3 times for 30 minutes and placed overnight in a 30% sucrose solution in PBS until the tissue was completely impregnated.
The brain samples were placed in a mold, and poured with the freezing medium. […]
The images were received using an inverted microscope Nikon Eclipse Ni. The number of positive cells was calculated using ImageJ software. […]

[2] = test system: male mice of CBA and C57Bl/6 hybrids, food deprived 12 hours; assay: Home cage feed consumption test; assay type: in vivo, mouse; conditions: leptin 1 mg/kg i.p. before testing
Method: The work was performed on 30 mature male mice of the first generation of CBA and C57Bl/6 hybrids weighing 22-24 grams. The animals were divided into treatment groups (Table 1).
Solutions for intranasal (i.n.) administration were prepared by dissolving the peptide in saline. The volume of i.n. administration: 1 μl per 1 g of animal weight. Solutions for intraperitoneal (i.p.) administration were prepared by dissolving the drug in saline. The volume of […]. administration: 10 μl per 1 g of animal weight. Solutions were prepared directly on the day of the experiment before the experiment.
All manipulations with animals were performed at the end of the adaptation period of 14 days.
Day 1—Adaptation of animals to the home cage food consumption test. In the evening, animals were deprived of food for 12 hours (overnight).
Day 2—Administration of the test substances and the food consumption test in a home cage for 1.5 hours. Before and after the test, the animals were weighed.
This test was performed to assess the appetite of animals after the treatment with tested compounds. The test was performed in 2 days. […]
Statistical data processing was carried out using nonparametric criteria (Mann-Whitney) for samples with a distribution other than normal. Normally distributed data were analyzed with one-way ANOVA (only Treatment factor) or repeated measures ANOVA (dynamics) with post hoc Fisher test. […]

For leptin, which “pStat3-positive cells in hypothalamic sections (ratio to total nuclei)” value [1] is on record?
Its value is 3%.

And the “amount of food consumed over 90 minutes vs control” value [2]?
The value was “did not differ”.
